From patent publication US8470839B2, “N1-acyl-5-fluoropyrimidinone derivatives” (Dow Agrosciences, LLC., priority 2009, dated 2013)
Like-named read-outs stand apart in the source and are kept apart here.

Assays:
[1] = test system: Mycosphaerella graminicola; Anamorph: Septoria tritici; Bayer Code SEPTTR; test: Evaluation of fungicidal activity: leaf blotch of wheat, greenhouse wheat plants inoculated with Septoria tritici; format: in vivo; conditions: Zymoseptoria tritici
Protocol: Evaluation of Fungicidal Activity: Leaf Blotch of Wheat (Mycosphaerella graminicola; Anamorph: Septoria tritici; Bayer Code […]) Wheat plants (variety Yuma) were grown from seed in a greenhouse in 50% mineral soil/50% soil-less Metro mix until the first leaf was fully emerged, with 7-10 seedlings per pot. These plants were inoculated with an aqueous spore suspension of Septoria tritici either prior to or after fungicide treatments. After inoculation the plants were kept in 100% relative humidity (one day in a dark dew chamber followed by two to three days in a lighted dew chamber) to permit spores to germinate and infect the leaf. The plants were then transferred to a greenhouse for disease to develop. The following table presents the activity of typical compounds of the present disclosure when evaluated in these experiments. The effectiveness of the test compounds in controlling disease was determined by assessing the severity of disease on treated plants, then converting the severity to percent control based on the level of disease on untreated, inoculated plants. In each case of Table II the rating scale is as follows: […]

[2] = 24 h, One-Day Protectant (1DP), 100 ppm, wheat leaf blotch, percent control vs untreated inoculated plants, read-out: SEPTTR 100 PPM 1DP (% Disease Control rating)
[3] = 72 h, Three-Day Curative (3DC), 100 ppm, wheat leaf blotch, percent control vs untreated inoculated plants, read-out: SEPTTR 100 PPM 3DC (% Disease Control rating)

| Structure (SMILES) | melting point | pest or weed control at 100 ppm [1, 2] | pest or weed control at 100 ppm [1, 3] | pest or weed control at 100 ppm ([1]; 24 h, read-out: SEPTTR 100 PPM 1DP (% Disease Control rating)) | pest or weed control at 100 ppm ([1]; 72 h, read-out: SEPTTR 100 PPM 3DC (% Disease Control rating)) |
| --- | --- | --- | --- | --- | --- |
| CC(C)=CC(=O)n1cc(F)c(/N=C/N(C)C)nc1=O [Compound 6] | 128 to 130 °C | 76 to 100% | 76 to 100% | – | – |
| Cc1cccc(C)c1C(=O)n1cc(F)c(/N=C/N(C)C)nc1=O [Compound 2, N′-[1-(2,6-dimethylbenzoyl)-5-fluoro-2-oxo-1,2-dihydro-pyrimidin-4-yl]-N,N-dimethylformamidine] | 120 to 150 °C | 76 to 100% | 76 to 100% | – | – |
| Cc1ccc(C(=O)n2cc(F)c(/N=C/N(C)C)nc2=O)cc1 [Compound 9] | 128.8 to 130.5 °C | 76 to 100% | 76 to 100% | – | – |
| Nc1nc(=O)n(C(=O)c2ccccc2F)cc1F [Compound 16] | 228.3 to 229.7 °C | 76 to 100% | 76 to 100% | – | – |
| COc1ccc(C(=O)n2cc(F)c(N)nc2=O)cc1 [Compound 15] | 257.9 to 259.6 °C | 76 to 100% | 76 to 100% | – | – |
| CN(C)/C=N/c1nc(=O)n(C(=O)c2c(Cl)cccc2Cl)cc1F [Compound 3, N′-[1-(2,6-dichlorobenzoyl)-5-fluoro-2-oxo-1,2-dihydro-pyrimidin-4-yl]-N,N-dimethylformamidine] | 185 to 187 °C | – | – | 51 to 75% | 76 to 100% |
| CC(=O)Nc1nc(=O)n(C(=O)c2ccccc2)cc1F [Compound 22] | 122.8 to 123.6 °C | – | – | – | – |
| COc1ccc(C(=O)n2cc(F)c(N)nc2=O)cc1OC [Compound 18] | 170 to 172 °C | 76 to 100% | 76 to 100% | – | – |
| CN(C)/C=N/c1nc(=O)n(C(=O)c2ccc(Cl)cc2Cl)cc1F [Compound 4] | – | 76 to 100% | 76 to 100% | – | – |
| CC(=O)n1cc(F)c(/N=C/N(C)C)nc1=O [Compound 1, N′-(1-acetyl-5-fluoro-2-oxo-1,2-dihydropyrimidin-4-yl)-N,N-dimethylformamidine] | 125 to 130 °C (dec.) | 76 to 100% | 76 to 100% | – | – |
| Nc1nc(=O)n(C(=O)c2ccccc2)cc1F [Compound 14] | 213.2 to 215.3 °C | 76 to 100% | 76 to 100% | – | – |
| COc1ccc(C(=O)n2cc(F)c(/N=C/N(C)C)nc2=O)cc1 [Compound 8] | 126.2 to 128.3 °C | 76 to 100% | 76 to 100% | – | – |
| Nc1nc(=O)n(C(=O)c2ccc(F)c(F)c2)cc1F [Compound 20] | 150 to 152 °C | 76 to 100% | 76 to 100% | – | – |
| Nc1nc(=O)n(C(=O)c2cc(F)cc(F)c2)cc1F [Compound 13, 4-amino-1-(3,5-difluorobenzoyl)-5-fluoro-1H-pyrimidin-2-one] | – | 76 to 100% | 76 to 100% | – | – |
| CN(C)/C=N/c1nc(=O)n(C(=O)c2ccc(F)c(F)c2)cc1F [Compound 11] | 130 to 132 °C | 76 to 100% | 76 to 100% | – | – |
| Nc1nc(=O)n(C(=O)c2ccsc2)cc1F [Compound 19] | 223.1 to 225.2 °C | 76 to 100% | 76 to 100% | – | – |
| CC(=O)Nc1nc(=O)n(C(=O)c2cccc(Cl)c2)cc1F [Compound 23] | 129.5 to 131 °C | – | – | – | – |
| CC(=O)Nc1nc(=O)n(C(=O)c2ccc(C)cc2)cc1F [Compound 21, N-(5-fluoro-1-(4-methylbenzoyl)-2-oxo-1,2-dihydropyrimidin-4-yl)acetamide] | 146.9 to 148.2 °C | – | – | – | – |
| CN(C)/C=N/c1nc(=O)n(C(=O)c2cccc(Cl)c2)cc1F [Compound 12] | 95.3 to 97.7 °C | – | – | – | – |
| Cc1ccc(C(=O)n2cc(F)c(/N=C/N(C)C)nc2=O)c(C)c1 [Compound 5] | – | 76 to 100% | 76 to 100% | – | – |
| CN(C)/C=N/c1nc(=O)n(C(=O)c2ccccc2)cc1F [Compound 7] | 137.3 to 139 °C | 76 to 100% | 76 to 100% | – | – |
| CN(C)/C=N/c1nc(=O)n(C(=O)c2cccs2)cc1F [Compound 10] | 154.8 to 156.5 °C | 76 to 100% | 76 to 100% | – | – |
| Cc1ccc(C(=O)n2cc(F)c(N)nc2=O)cc1 [Compound 17] | 257 to 259.5 °C | 76 to 100% | 76 to 100% | – | – |
